Assay results: patent US20090143368A1, “Use of Cinnamoyl Compound” (priority 2005, published 2009)

Each compound was assayed on transcription regulatory region for a human-derived Type I collagen α2 chain gene (assay: TGF-β-promoted transcription of a Type I collagen gene, COL-Luc luciferase reporter assay). Conditions: compound final concentration 1 μM; normal human fetal skin fibroblast transfected with COL-Luc; TGF-β added, 40 hours; read-out: Inhibition percentage of the ability of TGF-β to promote transcription of a Type I collagen gene.
Type: cell-based
Experimental: 1×10^8 cells of a normal human fetal skin fibroblast (Clontech, catalogue No. CC-2509) were cultured at 37° C. overnight under 5% CO2 atmosphere. After the cultured cells were washed with a sodium phosphate buffer (hereinafter, referred to as PBS) twice, 3 ml of PBS was added thereto and the cells were scraped away the wall of a vessel using a cell scraper (Nalgen, catalogue No. 179693). The scraped cells were collected by centrifugation (1,500 rpm, 4° C., 15 min), and these were suspended in 20 ml of PBS and centrifuged again. To the resulting precipitates were added 11 ml of Solution 2 and 4.8 μl of pronase of DNA Extraction Kit (Stratagene, catalogue No. 200600). After shaken at 60° C. for 1 hour, the resulting mixture was allowed to stand in ice for 10 minutes. Then, 4 ml of Solution 3 of the kit was added to the mixture. After mixed, the mixture was allowed to stand in ice for 5 minutes and then centrifuged (3,000 rpm, 4° C., 15 min) to recover a supernatant. To the recovered supernatant was added 2 μl of RNase per 1 ml of the supernatant and the mixture was allowed to stand at 37° C. for 15 minutes. To the mixture was added 2-fold volume of ethanol. After mixed, a white thread-like substance (genomic DNA) appeared and the substance was recovered. The recovered genomic DNA was washed with 70% ethanol and then air-dried. The air-dried genomic DNA was dissolved in 500 μl of 10 mM Tris-HCl, 1 mM EDTA (pH 8.0) (hereinafter, referred to as TE).
The resulting genomic DNA-dissolved solution (genomic DNA 1 μg corresponding amount) was mixed with each 1 μl of an oligonucleotide consisting of a base sequence represented by SEQ ID No.: 1 (SEQ ID No. 1: an oligonucleotide primer designed to amplify a collagen promoter DNA: ccaagctagc gaaattatct tttctttcat ag 32) and an oligonucleotide ([…]) consisting of a base sequence represented by SEQ ID No.:2 (SEQ ID No. 2: an oligonucleotide primer designed to amplify a collagen promoter DNA: ccaaaagctt gcagtcgtgg ccagtacc 28), 29 μl of distilled water, 5 μl of a buffer attached to TaKaRa LA Taq (TAKARA SHUZO Co., Ltd., catalogue No. RR002A), 5 μl of a Mg^2+ solution, 5 μl of a dNTP mixture and 0.5 μl of TaKaRa LA Taq (TAKARA SHUZO Co., Ltd., catalogue No. RR002A). After the resulting mixed solution was incubated at 94° C. for 5 minutes, the mixed solution was subjected to 30 cycles, in which one cycle consists of incubation at 94° C. for 1 minute, at 60° C. for 1 minute and then at 72° C. for 1 minute. The mixed solution was electrophoresed on a 2% agarose gel to recover about 0.5 kb of a DNA. The recovered DNA was treated with phenol/chloroform and then precipitated with ethanol to recover the DNA. The resulting DNA was dissolved in ultrapure water. To this solution were added 2.5 μl of NheI and 2.5 μl of HindIII, and then incubated at 37° C. for 3 hours. Then, the solution was electrophoresed on a 2% agarose gel to recover about 3.5 kb of a DNA. The recovered DNA was precipitated with ethanol to recover again the DNA (hereinafter, referred to as the collagen promoter DNA).
On the other hand, the vector pGL3 (Promega, catalogue No. E1751) having the nucleotide sequence encoding firefly luciferase was digested with NheI and HindIII, and then subjected to agarose gel electrophoresis as described above to recover about 5 kb of a DNA. The recovered DNA was precipitated with ethanol to recover the DNA again. To the recovered DNA were added 44 μl of distilled water, 5 μl of Buffer attached to Alkaline Phosphatase (TAKARA SHUZO, catalogue No. 2120A) and 1 μl of Alkaline Phosphatase (TAKARA SHUZO, catalogue No. 2120A). The mixed solution was incubated at 65° C. for 30 minutes. Then, the mixed solution was treated with phenol/chloroform twice, and precipitated with ethanol to recover the DNA (hereinafter referred to as the Luc vector DNA). […]

| SMILES | inhibition at 1 µM [%] |
| --- | --- |
| COCC(=O)Nc1cccc(C=CC(=O)C2=C(O)c3ccccc3S(=O)(=O)N2C)c1 [(5b), 4-hydroxy-3-[3-[3-(methoxyacetylamino)phenyl]acryloyl]-2-methyl-2H-1,2-benzothiazine-1,1-dioxide] | ≥ 70 |
| CN1C(C(=O)C=Cc2cccc(OCCO)c2)=C(O)c2ccccc2S1(=O)=O [(16b), 4-hydroxy-3-[3-[3-(2-hydroxyethoxy)phenyl]acryloyl]-2-methyl-2H-1,2-benzothiazine-1,1-dioxide] | ≥ 70 |
| COCCNC(=O)c1cccc(C=CC(=O)c2c[nH]c3ccccc3c2=O)c1 [(23c), 3-[3-[3-[(2-methoxyethyl)aminocarbonyl]phenyl}acryloyl]-4(1H)-quinolinone] | ≥ 70 |

Same assay, conditions: compound final concentration 3 μM; normal human fetal skin fibroblast transfected with COL-Luc; TGF-β added, 40 hours; read-out: Inhibition percentage of the ability of TGF-β to promote transcription of a Type I collagen gene

| SMILES | inhibition at 3 µM [%] |
| --- | --- |
| COC(=O)COc1cccc(C=CC(=O)C2=C(O)c3ccccc3S(=O)(=O)N2C)c1 [(1b), 4-hydroxy-3-[3-[3-[(methoxycarbonyl)methoxy]phenyl]acryloyl]-2-methyl-2H-1,2-benzothiazine-1,1-dioxide] | ≥ 70 |
| COCCNC(=O)c1cccc(C=CC(=O)C2=C(O)c3ccccc3S(=O)(=O)N2C)c1 [(10b), 4-hydroxy-3-[3-[3-[(2-methoxyethyl)aminocarbonyl]phenyl}acryloyl]-2-methyl-2H-1,2-benzothiazine-1,1-dioxide] | ≥ 70 |
| COC(=O)CNC(=O)c1cccc(C=CC(=O)C2=C(O)c3ccccc3S(=O)(=O)N2C)c1 [(13b), 4-hydroxy-3-[3-[3-[[(methoxycarbonylmethyl)amino]carbonyl]phenyl}acryloyl]-2-methyl-2H-1,2-benzothiazine-1,1-dioxide] | ≥ 70 |
| COCC(=O)Nc1cccc(C=CC(=O)c2c(O)c3cccnc3n(C)c2=O)c1 [(19a), 4-hydroxy-1-methyl-3-[3-[3-(methoxyacetylamino)phenyl]acryloyl]-1H-[1,8]naphthyridin-2-one] | ≥ 70 |
| COCCNC(=O)c1cccc(C=CC(=O)c2cn(C)c3ccccc3c2=O)c1 [(24c), 3-[3-[3-[(2-methoxyethyl)aminocarbonyl]phenyl}acryloyl]-1-methyl-4(1H)-quinolinone] | ≥ 70 |
| COC(=O)CNC(=O)c1cccc(C=CC(=O)c2c(O)c3cccnc3n(C)c2=O)c1 [(29a), 4-hydroxy-1-methyl-3-[3-[3-[[(methoxycarbonylmethyl)amino]carbonyl]phenyl}acryloyl]-1H-[1,8]naphthyridin-2-one] | ≥ 70 |
| COCCNC(=O)c1cccc(C=CC(=O)c2c(O)c3cccnc3[nH]c2=O)c1 [(31a), 4-hydroxy-3-[3-[3-[(2-methoxyethyl)aminocarbonyl]phenyl}acryloyl]-1H-[1,8]naphthyridin-2-one] | ≥ 70 |
| COCCNC(=O)c1cccc(C=CC(=O)c2c(O)c3cccnc3n(C)c2=O)c1 [(32a), 4-hydroxy-1-methyl-3-[3-[3-[(2-methoxyethyl)aminocarbonyl]phenyl}acryloyl]-1H-[1,8]naphthyridin-2-one] | ≥ 70 |
| COC(=O)COc1cccc(C=CC(=O)c2c(O)c3cccnc3n(C)c2=O)c1 [(36a), 4-hydroxy-1-methyl-3-[3-[3-[(methoxycarbonyl)methoxy]phenyl]acryloyl]-1H-[1,8]naphthyridin-2-one] | ≥ 70 |
| Cn1c(=O)c(C(=O)C=Cc2cccc(OCCO)c2)c(O)c2cccnc21 [(40a), 4-hydroxy-1-methyl-3-[3-[3-(2-hydroxyethoxy)phenyl]acryloyl]-1H-[1,8]naphthyridin-2-one] | ≥ 70 |
| COCCOC(=O)Nc1cccc(C=CC(=O)c2c(O)c3cccnc3n(C)c2=O)c1 [(42a), 4-hydroxy-1-methyl-3-[3-[3-[(2-methoxyethoxy)carbonylamino]phenyl]acryloyl]-1H-[1,8]naphthyridin-2-one] | ≥ 70 |

Same assay, conditions: compound final concentration 10 μM; normal human fetal skin fibroblast transfected with COL-Luc; TGF-β added, 40 hours; read-out: Inhibition percentage of the ability of TGF-β to promote transcription of a Type I collagen gene

| SMILES | inhibition at 10 µM [%] |
| --- | --- |
| COC(=O)COc1cccc(C=CC(=O)c2ccc(C)[nH]c2=O)c1 [(11c), 3-[3-[3-[(methoxycarbonyl)methoxy]phenyl]-1-oxo-2-propenyl]-6-methyl-2(1H)-pyridinone] | ≥ 70 |
| Cc1ccc(C(=O)/C=C/c2cccc(OCCO)c2)c(=O)[nH]1 [(16c), 3-[3-[3-(2-hydroxyethoxy)phenyl]-1-oxo-2-propenyl]-6-methyl-2(1H)-pyridinone] | ≥ 70 |
| COCC(=O)Nc1ccc(C=CC(=O)c2c(O)c3cccnc3n(C)c2=O)cc1 [(20a), 4-hydroxy-1-methyl-3-[3-[4-(methoxyacetylamino)phenyl]acryloyl]-1H-[1,8]naphthyridin-2-one] | ≥ 70 |
| CN(C)CCOc1cccc(C=CC(=O)c2c(O)c3cccnc3n(C)c2=O)c1 [(56a), 4-hydroxy-1-methyl-3-[3-[3-(2-dimethylaminoethoxy)phenyl]acryloyl]-1H-[1,8]naphthyridin-2-one] | ≥ 70 |
| COCCNC(=O)c1cccc(/C=C/C(=O)c2c(O)c3cccnc3n(C)c2=O)n1 [(124a), 4-hydroxy-1-methyl-3-[3-[6-(2-methoxyethyl)aminocarbonyl-2-pyridinyl]acryloyl]-1H-[1,8]naphthyridin-2-one] | ≥ 70 |
